The test system of one experiment is A121. Nature of the experiment: Anticancer activity against human ovarian carcinoma A121 cells. The experiment is classed as functional.
Another experiment deals with MCF7. Nature of the experiment: Anticancer activity against human breast carcinoma MCF-7 cells. The experiment is classed as functional.
A further experiment deals with NCI-H125. In words: Anticancer activity against human nonsmall cell lung carcinoma (H125 cells). The experiment is classed as functional.
Another experiment deals with WiDr. Nature of the experiment: Anticancer activity against human colon carcinoma WiDr cells. The experiment is classed as functional.
The next experiment has as its system L1210. In words: Anticancer activity against murine leukemia L1210 cells. The experiment is classed as functional, Mus musculus.

SMILES strings stand for the structures.

With `COc1cc2c(c3c1C(=O)c1c(NCCNCCO)ccc(NCCNCCO)c1C3=O)CCCC2`, the Activity with A121 is 100 nM; in the experiment with MCF7, 1000 nM; in the experiment on NCI-H125, 220 nM; in the experiment with WiDr, 960 nM; in the experiment on L1210, 2 µM.

Source of the values: ChEMBL document CHEMBL1125036, “Antitumor properties of tetrahydrobenz[a]anthraquinone derivatives” (1990).
